Reference: ChEMBL document CHEMBL3611970, “Synthesis and evaluation of isatin-β-thiosemicarbazones as novel agents against antibiotic-resistant Gram-positive bacterial species” (2015)
Converted amounts (≈) assume the structure as drawn.

Experiments:
Format in all cases: functional
[1] = system: Staphylococcus aureus; test: Antimicrobial activity against methicillin-resistant Staphylococcus aureus 309-8 clinical isolate after 16 hrs by broth microdilution method; conditions: 309-8, 16 h
[2] = system: Staphylococcus aureus; test: Antimicrobial activity against methicillin-resistant Staphylococcus aureus 309-4 clinical isolate after 16 hrs by broth microdilution method; conditions: 309-4, 16 h
[3] = system: Bacillus spizizenii; test: Antimicrobial activity against Bacillus subtilis ATCC 6633 after 16 hrs by broth microdilution method; conditions: ATCC 6633, 16 h
[4] = system: Staphylococcus aureus; test: Antimicrobial activity against methicillin-resistant Staphylococcus aureus 309-6 clinical isolate after 16 hrs by broth microdilution method; conditions: 309-6, 16 h
[5] = system: Staphylococcus aureus; test: Antimicrobial activity against methicillin-resistant Staphylococcus aureus 309-7 clinical isolate after 16 hrs by broth microdilution method; conditions: 309-7, 16 h
[6] = system: Staphylococcus aureus; test: Antimicrobial activity against methicillin-resistant Staphylococcus aureus 309-3 clinical isolate after 16 hrs by broth microdilution method; conditions: 309-3, 16 h
[7] = system: Staphylococcus aureus; test: Antimicrobial activity against methicillin-resistant Staphylococcus aureus 6281 clinical isolate after 16 hrs by broth microdilution method; conditions: Staphylococcus aureus, 6281, 16 h
[8] = system: Staphylococcus aureus; test: Antimicrobial activity against methicillin-resistant Staphylococcus aureus 309-1 clinical isolate after 16 hrs by broth microdilution method; conditions: 309-1, 16 h
[9] = system: Enterococcus faecalis; test: Antimicrobial activity against Enterococcus faecalis VRE-309 after 16 hrs by broth microdilution method; conditions: VRE-309, 16 h
[10] = system: Staphylococcus aureus; test: Antimicrobial activity against methicillin-resistant Staphylococcus aureus 8-24 clinical isolate after 16 hrs by broth microdilution method; conditions: 8-24, 16 h
[11] = system: Klebsiella pneumoniae; test: Antimicrobial activity against Klebsiella pneumoniae KP-249 clinical isolate after 16 hrs by broth microdilution method; conditions: KP-249, 16 h
[12] = system: Enterococcus faecalis; test: Antimicrobial activity against vancomycin-susceptible Enterococcus faecalis after 16 hrs by broth microdilution method
[13] = system: Staphylococcus aureus; test: Antimicrobial activity against methicillin-resistant Staphylococcus aureus 8-21 clinical isolate after 16 hrs by broth microdilution method; conditions: 8-21, 16 h
[14] = system: Staphylococcus aureus; test: Antimicrobial activity against Staphylococcus aureus ATCC 6538 after 16 hrs by broth microdilution method; conditions: ATCC 6538, 16 h
[15] = system: Staphylococcus aureus; test: Antimicrobial activity against methicillin-resistant Staphylococcus aureus Chaoyang clinical isolate after 16 hrs by broth microdilution method
[16] = system: Pseudomonas aeruginosa; test: Antimicrobial activity against Pseudomonas aeruginosa PAO1 after 16 hrs by broth microdilution method; conditions: PAO1, 16 h
[17] = system: Staphylococcus aureus; test: Antimicrobial activity against methicillin-resistant Staphylococcus aureus 6-42 clinical isolate after 16 hrs by broth microdilution method; conditions: 6-42, 16 h

Compound | MIC [1] [µg/mL] | MIC [2] [µg/mL] | MIC [3] [µg/mL] | MIC [4] [µg/mL] | MIC [5] [µg/mL] | MIC [6] [µg/mL] | MIC [7] [µg/mL] | MIC [8] [µg/mL] | MIC [9] [µg/mL] | MIC [10] [µg/mL] | MIC [11] [µg/mL] | MIC [12] [µg/mL] | MIC [13] [µg/mL] | MIC [14] [µg/mL] | MIC [15] [µg/mL] | MIC [16] [µg/mL] | MIC [17] [µg/mL]
Cc1cccc(NC(=S)N/N=C2\C(=O)Nc3c(I)cccc32)c1 | 1.56 (≈ 3.58 µM) | 1.56 (≈ 3.58 µM) | ≤ 0.78 | 3.12 (≈ 7.15 µM) | 0.78 (≈ 1.79 µM) | 3.12 (≈ 7.15 µM) | 6.25 (≈ 14.3 µM) | 1.56 (≈ 3.58 µM) | 3.12 (≈ 7.15 µM) | 1.56 (≈ 3.58 µM) | > 100 | 12.5 (≈ 28.7 µM) | 1.56 (≈ 3.58 µM) | 3.12 (≈ 7.15 µM) | 0.78 (≈ 1.79 µM) | > 100 | 1.56 (≈ 3.58 µM)
O=C1Nc2c(I)cccc2/C1=N/NC(=S)Nc1ccc(Cl)cc1 | 1.56 (≈ 3.42 µM) | 0.78 (≈ 1.71 µM) | ≤ 0.78 | 3.12 (≈ 6.83 µM) | 0.78 (≈ 1.71 µM) | 1.56 (≈ 3.42 µM) | 3.12 (≈ 6.83 µM) | 1.56 (≈ 3.42 µM) | 3.12 (≈ 6.83 µM) | 1.56 (≈ 3.42 µM) | > 100 | 6.25 (≈ 13.7 µM) | 1.56 (≈ 3.42 µM) | 1.56 (≈ 3.42 µM) | 0.78 (≈ 1.71 µM) | > 100 | 1.56 (≈ 3.42 µM)
O=C1Nc2c(I)cccc2/C1=N/NC(=S)Nc1ccc(Br)cc1 | 3.12 (≈ 6.23 µM) | 1.56 (≈ 3.11 µM) | ≤ 0.78 | 6.25 (≈ 12.5 µM) | 1.56 (≈ 3.11 µM) | 3.12 (≈ 6.23 µM) | 3.12 (≈ 6.23 µM) | 1.56 (≈ 3.11 µM) | 3.12 (≈ 6.23 µM) | 3.12 (≈ 6.23 µM) | > 100 | 12.5 (≈ 24.9 µM) | 3.12 (≈ 6.23 µM) | 3.12 (≈ 6.23 µM) | 0.78 (≈ 1.56 µM) | > 100 | 1.56 (≈ 3.11 µM)
COc1ccc(NC(=S)N/N=C2\C(=O)Nc3c(I)cccc32)cc1 | 6.25 (≈ 13.8 µM) | 6.25 (≈ 13.8 µM) | 3.12 (≈ 6.9 µM) | 25 (≈ 55.3 µM) | 1.56 (≈ 3.45 µM) | 12.5 (≈ 27.6 µM) | 12.5 (≈ 27.6 µM) | 6.25 (≈ 13.8 µM) | > 100 | 6.25 (≈ 13.8 µM) | > 100 | > 100 | 6.25 (≈ 13.8 µM) | > 100 | 1.56 (≈ 3.45 µM) | > 100 | 3.12 (≈ 6.9 µM)
Cc1ccc(NC(=S)N/N=C2\C(=O)Nc3c(I)cccc32)cc1 | 1.56 (≈ 3.58 µM) | 1.56 (≈ 3.58 µM) | 1.56 (≈ 3.58 µM) | 3.12 (≈ 7.15 µM) | 0.78 (≈ 1.79 µM) | 3.12 (≈ 7.15 µM) | 6.25 (≈ 14.3 µM) | 3.12 (≈ 7.15 µM) | 3.12 (≈ 7.15 µM) | 3.12 (≈ 7.15 µM) | > 100 | 12.5 (≈ 28.7 µM) | 1.56 (≈ 3.58 µM) | 6.25 (≈ 14.3 µM) | 0.78 (≈ 1.79 µM) | > 100 | 0.78 (≈ 1.79 µM)
COc1ccccc1NC(=S)N/N=C1\C(=O)Nc2c(F)cccc21 | > 100 | > 100 | > 100 | > 100 | > 100 | > 100 | > 100 | > 100 | > 100 | > 100 | > 100 | > 100 | > 100 | > 100 | > 100 | > 100 | > 100
O=C1Nc2c(I)cccc2/C1=N/NC(=S)Nc1cccc(F)c1 | 0.78 (≈ 1.77 µM) | 0.78 (≈ 1.77 µM) | ≤ 0.78 | 1.56 (≈ 3.54 µM) | 0.78 (≈ 1.77 µM) | 1.56 (≈ 3.54 µM) | 3.12 (≈ 7.09 µM) | 0.78 (≈ 1.77 µM) | 3.12 (≈ 7.09 µM) | 1.56 (≈ 3.54 µM) | > 100 | 6.25 (≈ 14.2 µM) | 1.56 (≈ 3.54 µM) | 1.56 (≈ 3.54 µM) | 0.78 (≈ 1.77 µM) | > 100 | 0.78 (≈ 1.77 µM)
O=C1Nc2c(I)cccc2/C1=N/NC(=S)Nc1ccc(F)cc1 | 1.56 (≈ 3.54 µM) | 1.56 (≈ 3.54 µM) | ≤ 0.78 | 3.12 (≈ 7.09 µM) | 0.78 (≈ 1.77 µM) | 1.56 (≈ 3.54 µM) | 3.12 (≈ 7.09 µM) | 3.12 (≈ 7.09 µM) | 3.12 (≈ 7.09 µM) | 1.56 (≈ 3.54 µM) | > 100 | 6.25 (≈ 14.2 µM) | 1.56 (≈ 3.54 µM) | 1.56 (≈ 3.54 µM) | 0.78 (≈ 1.77 µM) | > 100 | 0.78 (≈ 1.77 µM)
O=C(O)c1cn(C2CC2)c2cc(N3CCNCC3)c(F)cc2c1=O [CIPROFLOXACIN] | – | – | – | – | – | – | – | – | – | – | – | – | – | – | – | 1 (≈ 3.02 µM) | –
COc1cccc(OC)c1C(=O)N[C@@H]1C(=O)N2[C@@H]1SC(C)(C)[C@@H]2C(=O)O [METHICILLIN] | > 200 | > 200 | – | > 200 | > 200 | > 200 | > 200 | > 200 | – | > 200 | – | – | > 200 | – | – | – | > 200
CN[C@H](CC(C)C)C(=O)N[C@H]1C(=O)N[C@@H](CC(N)=O)C(=O)N[C@H]2C(=O)N[C@H]3C(=O)N[C@H](C(=O)N[C@H](C(=O)O)c4cc(O)cc(O)c4-c4cc3ccc4O)[C@H](O)c3ccc(c(Cl)c3)Oc3cc2cc(c3O[C@@H]2O[C@H](CO)[C@@H](O)[C@H](O)[C@H]2O[C@H]2C[C@](C)(N)[C@H](O)[C@H](C)O2)Oc2ccc(cc2Cl)[C@H]1O [VANCOMYCIN] | – | – | 0.5 (≈ 0.345 µM) | – | – | – | – | – | > 8 | – | – | 2 (≈ 1.38 µM) | – | – | – | – | –
